Data: ChEMBL document CHEMBL5143711, “Glenthmycins A-M: Macrocyclic Spirotetronate Polyketide Antibacterials from the Australian Pasture Plant-Derived Streptomyces sp. CMB-PB041” (J Nat Prod, 2022)

Each molecule was assayed on Mycobacterium tuberculosis variant bovis (assay: Antibacterial activity against Mycobacterium bovis BCG ATCC 35741 incubated for 16 to 24 hrs by broth microdilution based spectrophotometric analysis).
Type: functional, organism-based
Molecule `COc1cc(C)c(C(=O)O[C@H]2[C@@H](O)[C@H](O[C@H]3CC[C@H](C)[C@@H]4[C@@H]3C=C(C)[C@H]3/C(C)=C/CC/C(C)=C/[C@@H]5C=C(C(=O)O)[C@H](C)C[C@]56OC(=O)C(=C6O)C(=O)[C@@]43C)O[C@H](C)[C@H]2O)c(O)c1` has an IC50 of over 30 µM.
For `CC(=O)O[C@H]1CC[C@H](C)[C@@H]2[C@@H]1C=C(C)[C@H]1/C(C)=C/CC/C(C)=C/[C@]3(C)C=C(C)[C@H](C)C[C@]34OC(=O)C(=C4O)C(=O)[C@@]21C`, the IC50 was over 30 µM.
Molecule `COc1cc(C)c(C(=O)O[C@H]2[C@H](O[C@H]3CC[C@H](C)[C@@H]4[C@@H]3C=C(C)[C@H]3/C(C)=C/CC/C(C)=C/[C@]5(C)C=C(C(=O)O)[C@H](C)C[C@]56OC(=O)C(=C6O)C(=O)[C@@]43C)O[C@H](C)[C@@H](O)[C@H]2O)c(O)c1` has an IC50 of over 30 µM.
`COc1cc(C)c(C(=O)O[C@H]2[C@@H](O)[C@@H](O)[C@H](O[C@H]3CC[C@H](C)[C@@H]4[C@@H]3C=C(C)[C@H]3/C(C)=C/CC/C(C)=C/[C@@H]5C=C(C(=O)O)[C@H](C)C[C@]56OC(=O)C(=C6O)C(=O)[C@@]43C)O[C@@H]2C)c(O)c1` was tested, and the IC50 was over 30 µM.
For `CC(=O)O[C@H]1CC[C@H](C)[C@@H]2[C@@H]1C=C(C)[C@H]1/C(C)=C/CC/C(C)=C/[C@@H]3C=C(C)[C@H](C)C[C@]34OC(=O)C(=C4O)C(=O)[C@@]21C`, the IC50 was over 30 µM.
For `COc1cc(C)c(C(=O)N[C@@H]2[C@@H](C)O[C@@H](O[C@H]3CC[C@H](C)[C@@H]4[C@@H]3C=C(C)[C@H]3/C(C)=C/CC/C(C)=C/[C@]5(C)C=C(C(=O)O)[C@H](C)C[C@]56OC(=O)C(=C6O)C(=O)[C@@]43C)[C@H](O)[C@]2(C)O)c(O)c1`, the IC50 was over 30 µM.
Work on `COc1cc(C)c(C(=O)N[C@@H]2[C@@H](C)O[C@@H](O[C@H]3CC[C@H](C)[C@@H]4[C@@H]3C=C(C)[C@H]3/C(C)=C/CC/C(C)=C/[C@@H]5C=C(C(=O)O)[C@H](C)C[C@]56OC(=O)C(=C6O)C(=O)[C@@]43C)[C@H](O)[C@]2(C)O)c(O)c1` yielded an IC50 of over 30 µM.
In the case of `COc1cc(C)c(C(=O)O[C@H]2[C@@H](O)[C@@H](O)[C@H](O[C@H]3CC[C@H](C)[C@@H]4[C@@H]3C=C(C)[C@H]3/C(C)=C/CC/C(C)=C/[C@]5(C)C=C(C(=O)O)[C@H](C)C[C@]56OC(=O)C(=C6O)C(=O)[C@@]43C)O[C@@H]2C)c(OC)c1`, the IC50 is reported as over 30 µM.
With `COc1cc(C)c(C(=O)O[C@H]2[C@H](O[C@H]3CC[C@H](C)[C@@H]4[C@@H]3C=C(C)[C@H]3/C(C)=C/CC/C(C)=C/[C@@H]5C=C(C(=O)O)[C@H](C)C[C@]56OC(=O)C(=C6O)C(=O)[C@@]43C)O[C@H](C)[C@@H](O)[C@H]2O)c(O)c1` the IC50 was over 30 µM.
In the case of `COc1cc(C)c(C(=O)O[C@H]2[C@@H](O)[C@@H](O)[C@H](O[C@H]3CC[C@H](C)[C@@H]4[C@@H]3C=C(C)[C@H]3/C(C)=C/CC/C(C)=C/[C@]5(C)C=C(C(=O)O)[C@H](C)C[C@]56OC(=O)C(=C6O)C(=O)[C@@]43C)O[C@@H]2C)c(O)c1`, the IC50 is reported as over 30 µM.
In the case of `COc1cc(C)c(C(=O)O[C@H]2[C@@H](O)[C@H](O[C@H]3CC[C@H](C)[C@@H]4[C@@H]3C=C(C)[C@H]3/C(C)=C/CC/C(C)=C/[C@]5(C)C=C(C(=O)O)[C@H](C)C[C@]56OC(=O)C(=C6O)C(=O)[C@@]43C)O[C@H](C)[C@H]2O)c(O)c1`, the IC50 is reported as over 30 µM.
In the case of `CC1=C[C@@]2(C)/C=C(\C)CC/C=C(\C)[C@@H]3C(C)=C[C@H]4[C@@H]([C@@H](C)CC[C@@H]4O)[C@]3(C)C(=O)C3=C(O)[C@@]2(C[C@H]1C)OC3=O`, the IC50 is reported as over 30 µM.
